Assay results: patent US5206415A, “Tricyclic steroid analogs” (priority 1991, dated 1993)
Where a name gives a salt, the structure may show the parent alone. Read-outs that look alike come from different tables or passages of the source.

Experiments:
GABAA receptors [1] = details: cultured hippocampal neurons; cited from earlier work
[2] = test system: GABA-mediated inhibitory synaptic responses; details: olfactory cortical slices; cited from earlier work
GABA-gated channels = details: fluctuation analysis; cited from earlier work
rat synaptoneurosomes = details: cited from earlier work
[3] = cited from earlier work
[4] = test system: GABA-induced chloride currents; details: electrophysiological experiments; cited from earlier work
GABA currents = details: various CNS neurons, cited from earlier work
GABAA channels = details: single channel; cited from earlier work
picrotoxin site = details: cited from earlier work
[5] = in vivo; cited from earlier work
[6] = test system: recombinant human GABAA receptors; details: single channel recordings; cited from earlier work
[7] = rats; cited from earlier work
[8] = two different animal models of anxiety; cited from earlier work
[9] = test system: GABA-mediated neuronal inhibition; details: cited from earlier work
[10] = test system: GABA receptor/chloride ionophore complex; test: Potentiation of GABA currents by tricyclic analogs (patch clamp, cultured hippocampal neurons); assay type: cell-based, albino rat; details: 1 μM GABA, mean ± SEM (N)
Method: (§1) Under halothane anesthesia, 1 day old albino rat pups are sacrificed by rapid decapitation and the hippocampi are dissected and dissociated with papain (1 mg/ml in oxygenated L-15 media for 30 min at 35° C.) and mechanical trituration (18). Cells are plated on collagen coated-culture dishes at a density of 300,000 cells/ml. The growth media consists of Eagles Minimal Essential Media (MEM) supplemented with 5% fetal calf serum, 5% horse serum, 17 mM glucose, 0.4 mM glutamine, 50 U/ml penicillin and 50 μg/ml streptomycin. After three days in culture cells are treated with 10 μM cytosine arabinoside (ARA-C) to suppress glial growth. Cells are subsequently fed with fresh media once per week.
(§2) For recording purposes the growth media is replaced with a solution containing (in mM): 140 NaCl, 5 KCl, 2 CaCl2, 1 MgCl2, 10 glucose, 10 HEPES, 0.001 tetrodotoxin, pH=7.3. Neurons are studied using patch clamp recording techniques (12) with pipettes containing (in mM): 145 CsCl, 5 BAPTA, 5 NaCl, 0.5 CaCl2, 2 MgATP, 10 HEPES, pH=7.3. This CsCl intracellular solution sets the Cl^-1 equilibrium potential (Ecl) at 0 mV (i.e. symmetric transmembrane concentrations of Cl^-). This allows reliable recording of Cl^-1 currents without concern for shifts in transmembrane Cl^-1 concentration which can alter GABA responses during longer agonist exposures (1). […]

[11] = test system: GABA receptor/chloride ionophore complex; test: Direct Cl^- current activation (patch clamp, cultured hippocampal neurons); assay type: cell-based, albino rat; details: numeric bound
Method: as §1, §2

[12] = test system: GABA receptor channel complex; details: cited from earlier work
GABAA receptors [13] = details: cited from earlier work
benzodiazepine receptors = details: several studies; cited from earlier work

CC(=O)[C@H]1CC[C@H]2[C@@H]3CC[C@H]4C[C@H](O)CC[C@]4(C)[C@H]3C(=O)C[C@]12C [alphaxalone]
peak IPSC amplitude or rise time (GABAA receptors [1]): without change in peak IPSC amplitude or rise time
prolongation of IPSC decay (GABAA receptors [1]): 5-8 fold
time course of GABA-mediated inhibitory synaptic responses [2]: prolongs the time course of GABA-mediated inhibitory synaptic responses
burst length of GABA-gated channels (GABA-gated channels): significantly prolongs the burst length of GABA-gated channels
single channel conductance (GABA-gated channels): without changing the single channel conductance

CC(=O)[C@H]1CC[C@H]2[C@@H]3CC[C@@H]4C[C@H](O)CC[C@]4(C)[C@H]3CC[C@]12C [3α-hydroxy-5β-pregnan-20-one]
potentiation of muscimol-stimulated chloride uptake (rat synaptoneurosomes): potentiators of muscimol-stimulated chloride uptake
activity in vivo as steroid anesthetics [3]: active in vivo as steroid anesthetics
potentiation of GABA-induced chloride currents [4]: potentiators of GABA-induced chloride currents

CC(=O)C1CCC2C3CC=C4CC(OS(=O)(=O)O)CCC4(C)C3CCC12C (stereo not shown) [pregnenolone sulfate]
GABA currents (GABA currents): inhibit GABA-induced chloride currents
GABA currents (GABA currents; listed as pregnenolone sulfate (PS)): inhibit GABA currents
opening frequency of the channels (GABAA channels): decreasing the opening frequency of the channels
TBPS binding (picrotoxin site): inhibits TBPS binding at the picrotoxin site

CC(=O)[C@H]1CC[C@H]2[C@@H]3CCC4=CC(=O)CC[C@]4(C)[C@H]3CC[C@]12C [progesterone]
usefulness for treating premenstrual syndrome [5]: often useful

CCCC(C)C1(CC)C(=O)NC(=O)NC1=O (stereo not shown) [pentobarbital]
channel open times and burst lengths / opening frequency [6]: prolongs channel open times and burst lengths

C[C@]12CC[C@@H](O)C[C@@H]1CC[C@@H]1[C@@H]2CC[C@]2(C)[C@@H](C(=O)CO)CC[C@@H]12 [THDOC, 5α-pregnane-3α, 21-diol-20-one]
sleep induction and nonREM sleep [7]: induce sleep and increase nonREM sleep
anxiolytic and sedative activity [8]: both anxiolytic and sedative activity
GABA-mediated neuronal inhibition [9]: augment GABA-mediated neuronal inhibition

CC(=O)[C@H]1CC[C@H]2[C@@H]3CC[C@H]4C[C@H](O)CC[C@]4(C)[C@H]3CC[C@]12C [Example 3α-OH-DHP, 3α-hydroxy-5α-pregnan-20-one]
potentiation of muscimol-stimulated chloride uptake (rat synaptoneurosomes): potentiators of muscimol-stimulated chloride uptake
activity in vivo as steroid anesthetics [3]: active in vivo as steroid anesthetics
potentiation of GABA-induced chloride currents [4]: potentiators of GABA-induced chloride currents
Potentiation of GABA currents, 0.1 μM ([10]; 0.1 μM compound): 110 ± 5% of control response to
Potentiation of GABA currents, 1.0 μM ([10]; 1.0 μM compound): 195 ±16% of control response to
Concentration for Direct Cl^- Current Activation [11]: > 1 µM
channel open times and burst lengths / opening frequency [6]: increases the frequency of channel opening without altering the open times

C[C@]12CCC(=O)C=C1CC[C@@H]1[C@@H]2[C@@H](O)C[C@@]2(C)[C@H]1CC[C@]2(O)C(=O)CO [Cortisol]
GABA-induced chloride currents ([12]; nanomolar concentrations): inhibits these same currents
GABA-induced chloride currents ([12]; picomolar concentrations): augments GABA-induced chloride currents

CN1CCc2cc3c(cc2[C@H]1[C@@H]1OC(=O)c2c1ccc1c2OCO1)OCO3 [bicuculline]
block of steroid gated currents (GABAA receptors [13]): blocked

C[C@]12CC[C@H](OS(=O)(=O)O)CC1=CC[C@@H]1[C@@H]2CC[C@]2(C)C(=O)CC[C@@H]12 [dehydroepiandrosterone sulfate (DHEAS), dehydroepiandrosterone sulfate]
GABA currents (GABA currents): inhibit GABA currents
TBPS binding (picrotoxin site): not DHEAS

CCOC(=O)c1ncn2c1CN(C)C(=O)c1cc(F)ccc1-2 [R015-1788 (flumazenil)]
effect on steroid responses (benzodiazepine receptors): failed to find an effect

picrotoxin
opening frequency of the channels (GABAA channels): decreasing the opening frequency of the channels
